Measured values published in US6995185B2, “Δ1-pyrrolines used as pesticides” (Bayer Cropscience AG, priority 2000, dated 2006).

Test: log P determination by HPLC on reversed-phase column (C 18), EEC directive 79/831 Annex V.A8
Type: physicochemical
Conditions: reversed-phase HPLC column (C 18), 43° C.
Experimental: The log P values given in the tables and Preparation Examples above are determined in accordance with EEC directive 79/831 Annex V.A8 by HPLC (High Performance Liquid Chromatography) using a reversed-phase column (C 18). Temperature: 43° C. In the acidic range, the determination is carried out at pH 2.3 using the mobile phases 0.1% aqueous phosphoric acid and acetonitrile; linear gradient from 10% acetonitrile to 90% acetonitrile (marked^a) in the table). In the neutral range, the determination is carried out at pH 7.5 using the mobile phases 0.01-molar aqueous phosphate buffer solution and acetonitrile; linear gradient from 10% acetonitrile to 90% acetonitrile (marked^b) in the table). Calibration is carried out using unbranched alkan-2-ones (having 3 to 16 carbon atoms) with known log P values (determination of the log P values by the retention times using linear interpolation between two successive alkanones).

[1] = pH 2.3, pH 2.3 (marked a), 0.1% aqueous phosphoric acid/acetonitrile
[2] = pH 7.5, pH 7.5 (marked b), 0.01-molar aqueous phosphate buffer/acetonitrile

Which chromatographic logP [1] does the source give for `COC(=O)[C@H]1CC(c2ccccc2Cl)=N[C@H]1c1ccc(-c2ccc(OC(F)(F)F)cc2)cc1` (racemic) [Example 5, methyl ((2S, 3R), (2R, 3S))-5-(2-chlorophenyl)-2-[4′-(trifluoromethoxy)-1,1′-biphenyl-4-yl]-3,4-dihydro-2H-pyrrole-3-carboxylate] here?
The chromatographic logP was 5.05.

For `CCOC(=O)[C@H]1CC(c2c(F)cccc2F)=NC1c1ccc(-c2ccc(OC(F)(F)F)cc2)cc1` (stereo partly drawn) [Example 10], which chromatographic logP [1] is on record?
The chromatographic logP was 4.73.

For `O=C(O)[C@H]1CC(c2c(F)cccc2F)=NC1c1ccc(-c2ccc(OC(F)(F)F)cc2)cc1` (stereo partly drawn) [Example 11], which chromatographic logP [1] is on record?
Its chromatographic logP is 3.35.

With `CC(C)OC(=O)[C@H]1CC(c2c(F)cccc2F)=NC1c1ccc(-c2ccc(OC(F)(F)F)cc2)cc1` (stereo partly drawn) [Example 12] as the molecule, how does the chromatographic logP [1] read?
Its chromatographic logP is 5.05.

With `CCCCOC(=O)[C@H]1CC(c2c(F)cccc2F)=NC1c1ccc(-c2ccc(OC(F)(F)F)cc2)cc1` (stereo partly drawn) [Example 14] as the molecule, how does the chromatographic logP [1] read?
Its chromatographic logP is 5.41.

What about the chromatographic logP [2] of the same molecule?
Its chromatographic logP is 5.49.

For `CCCCCCOC(=O)[C@H]1CC(c2c(F)cccc2F)=NC1c1ccc(-c2ccc(OC(F)(F)F)cc2)cc1` (stereo partly drawn) [Example 15], which chromatographic logP [1] is on record?
The chromatographic logP was 6.11.

And the chromatographic logP [2]?
Its chromatographic logP is 6.18.

For `CCC(C)OC(=O)[C@H]1CC(c2c(F)cccc2F)=NC1c1ccc(-c2ccc(OC(F)(F)F)cc2)cc1` (stereo partly drawn) [Example 16], which chromatographic logP [1] is on record?
The chromatographic logP was 5.4.

And the chromatographic logP [2]?
The chromatographic logP was 5.48.

What does the source list for `CC(C)COC(=O)[C@H]1CC(c2c(F)cccc2F)=NC1c1ccc(-c2ccc(OC(F)(F)F)cc2)cc1` (stereo partly drawn) [Example 17]?
chromatographic logP [1]: 5.38; chromatographic logP [2]: 5.47

Which chromatographic logP [1] does the source give for `O=C(OC1CCCC1)[C@H]1CC(c2c(F)cccc2F)=NC1c1ccc(-c2ccc(OC(F)(F)F)cc2)cc1` (stereo partly drawn) [Example 18] here?
Its chromatographic logP is 5.47.

And the chromatographic logP [2]?
The chromatographic logP was 5.54.

For `O=C(OC1CCCCC1)[C@H]1CC(c2c(F)cccc2F)=NC1c1ccc(-c2ccc(OC(F)(F)F)cc2)cc1` (stereo partly drawn) [Example 19], which chromatographic logP [1] is on record?
Its chromatographic logP is 5.85.

What about the chromatographic logP [2] of the same molecule?
The chromatographic logP was 5.91.

Which chromatographic logP [1] does the source give for `CCCCCOC(=O)[C@H]1CC(c2c(F)cccc2F)=NC1c1ccc(-c2ccc(OC(F)(F)F)cc2)cc1` (stereo partly drawn) [Example 20] here?
The chromatographic logP was 5.84.

With `CC(C)(C)COC(=O)[C@H]1CC(c2c(F)cccc2F)=NC1c1ccc(-c2ccc(OC(F)(F)F)cc2)cc1` (stereo partly drawn) [Example 21] as the molecule, how does the chromatographic logP [1] read?
The chromatographic logP was 5.78.

Which chromatographic logP [1] does the source give for `CC(C)C(C)OC(=O)[C@H]1CC(c2c(F)cccc2F)=NC1c1ccc(-c2ccc(OC(F)(F)F)cc2)cc1` (stereo partly drawn) [Example 22] here?
The chromatographic logP was 5.71.

Which chromatographic logP [1] does the source give for `CCC(CC)OC(=O)[C@H]1CC(c2c(F)cccc2F)=NC1c1ccc(-c2ccc(OC(F)(F)F)cc2)cc1` (stereo partly drawn) [Example 23] here?
The chromatographic logP was 5.78.

Which chromatographic logP [1] does the source give for `COCCOC(=O)[C@H]1CC(c2c(F)cccc2F)=NC1c1ccc(-c2ccc(OC(F)(F)F)cc2)cc1` (stereo partly drawn) [Example 24] here?
Its chromatographic logP is 4.37.

With `N#CCCOC(=O)[C@H]1CC(c2c(F)cccc2F)=NC1c1ccc(-c2ccc(OC(F)(F)F)cc2)cc1` (stereo partly drawn) [Example 25] as the molecule, how does the chromatographic logP [1] read?
The chromatographic logP was 4.08.

For `C=CCCCOC(=O)[C@H]1CC(c2c(F)cccc2F)=NC1c1ccc(-c2ccc(OC(F)(F)F)cc2)cc1` (stereo partly drawn) [Example 26], which chromatographic logP [1] is on record?
Its chromatographic logP is 5.48.

For `C=C(C)CCOC(=O)[C@H]1CC(c2c(F)cccc2F)=NC1c1ccc(-c2ccc(OC(F)(F)F)cc2)cc1` (stereo partly drawn) [Example 27], which chromatographic logP [1] is on record?
Its chromatographic logP is 5.48.

With `O=C(OCc1ccoc1)[C@H]1CC(c2c(F)cccc2F)=NC1c1ccc(-c2ccc(OC(F)(F)F)cc2)cc1` (stereo partly drawn) [Example 28] as the molecule, how does the chromatographic logP [1] read?
Its chromatographic logP is 4.87.

Which chromatographic logP [1] does the source give for `N#CCOC(=O)[C@H]1CC(c2c(F)cccc2F)=NC1c1ccc(-c2ccc(OC(F)(F)F)cc2)cc1` (stereo partly drawn) [Example 29] here?
The chromatographic logP was 4.23.

With `N#CCCCOC(=O)[C@H]1CC(c2c(F)cccc2F)=NC1c1ccc(-c2ccc(OC(F)(F)F)cc2)cc1` (stereo partly drawn) [Example 30] as the molecule, how does the chromatographic logP [1] read?
Its chromatographic logP is 4.18.

For `O=C(OC/C=C/c1ccccc1)[C@H]1CC(c2c(F)cccc2F)=NC1c1ccc(-c2ccc(OC(F)(F)F)cc2)cc1` (stereo partly drawn) [Example 31], which chromatographic logP [1] is on record?
Its chromatographic logP is 5.55.

With `CC(C)(COC(=O)[C@H]1CC(c2c(F)cccc2F)=NC1c1ccc(-c2ccc(OC(F)(F)F)cc2)cc1)[N+](=O)[O-]` (stereo partly drawn) [Example 32] as the molecule, how does the chromatographic logP [1] read?
Its chromatographic logP is 4.77.

For `O=C(OCCCc1ccccc1)[C@H]1CC(c2c(F)cccc2F)=NC1c1ccc(-c2ccc(OC(F)(F)F)cc2)cc1` (stereo partly drawn) [Example 33], which chromatographic logP [1] is on record?
Its chromatographic logP is 5.78.
